Consider eleven molecules from patent US6756384B2, “Imidazole compounds” (Novo Nordisk A/S, priority 2000, dated 2004).

Where a name gives a salt, the structure may show the parent alone.

For the molecule `Cl.O=C(Cc1ccc(Cl)cc1)NC1CCc2[nH]cnc2C1` (centres unmarked), the melting point (usually the temperature of the solid-liquid transition) lay in the range of 222 to 224 °C.
The same measure for `C[C@@H](NC(=O)C1CCc2[nH]cnc2C1)c1cccc2ccccc12.Cl` (some centres unmarked): 84 to 85 °C; for `O=C(NCc1ccccc1Cl)C1CCCc2[nH]cnc21` (centres unmarked) (as salt: hydrochloride) [Example 89, 4,5,6,7-Tetrahydro-1H-benzimidazole-4-carboxylic acid 2-chlorobenzylamide]: 165 to 167 °C; for `C[C@H](NC(=O)C1CCc2[nH]cnc2C1)c1cccc2ccccc12` (some centres unmarked) [Example 1]: 158 to 160 °C.
As to `O=C(NCc1c(Cl)cccc1Oc1ccccc1)C1CCc2[nH]cnc2C1` (centres unmarked) [Example 22, 4,5,6,7-Tetrahydro-1H-benzimidazole-5-carboxylic Acid N-(2-Chloro-6-phenoxy-benzyl)amide], the melting point is 197 to 199 °C.
As to `O=C(NCCc1ccccc1)C1CCCc2[nH]cnc21` (centres unmarked) (as salt: hydrochloride) [Example 91, 4,5,6,7-Tetrahydro-1H-benzimidazole-4-carboxylic acid phenethylamide], the melting point was 177 to 179 °C.
Molecule `O=C(NCc1ccccc1)C1CCc2[nH]cnc2C1.O=C(O)C(=O)O` (centres unmarked) showed a melting point of 130 to 132 °C.
In the case of `Cl.O=C(NCc1cccc2ccccc12)C1CCc2[nH]cnc2C1` (centres unmarked), the melting point is 142 to 144 °C.
In the case of `CN(Cc1ccccc1)C(=O)C1CCCc2[nH]cnc21` (centres unmarked) (as salt: hydrochloride) [Example 90, 4,5,6,7-Tetrahydro-1H-benzimidazole-4-carboxylic acid benzylmethylamide] it was 211 to 213 °C; in that of `Cl.O=C(NCCCc1ccc(Cl)cc1)C1CCc2[nH]cnc2C1` (centres unmarked), 146 to 148 °C.
`O=C(NCCc1ccccc1)C1CCc2[nH]cnc2C1.O=C(O)C(=O)O` (centres unmarked) returned a melting point of 197 to 199 °C.
